# Measured values: US20170266218A1, “NAD+ COENZYME FORMULATION AND METHODS OF MAKING AND USING THE SAME” (Steve McNerlin, priority 2016, published 2017)
# Tests used:
# [1] = Applicant's finding on therapeutic activity of NAD+ versus NADH for the disclosed uses
# Source text: As such, Applicant believes NAD+ alone is responsible for the activities disclosed herein. […] Applicant therefore defines NADH as having a negative net NAD+ value.
# [2] = test system: hair growth (follicular stimulation; SIRT1 enzyme); assay: Database trial: weekly scalp micro injections of SIRT1 activator (NAD+), hair growth followed by trichoscan; format: in vivo, human
# Method: All six patients underwent weekly micro injections to the subcutaneous fatty layer of the affected layer of the scalp using 4 ml of a SIRT1 Activator (NAD+) over a 24 week period using a commercially available Biophymed CE certified U225 mesotherapy device. The SIRT 1 activator was specially prepared from our written protocol.
# Patients were followed for safety and tolerability as well as for monitoring differences in hair growth. In order to track progress over time, we employed global photography, and a 60 second patient observational assessment tool based on a standardized 60 second hair count protocol, haircount and trichoscan analysis (Fotofinder); Trichoscan analysis allows us to quantitatively track the following parameters: hair count, hair density, anagen/telogen rates, along with cumulative hair thickness Patients were asked to return to the clinic at 6 weeks, 12 weeks after the intervention.
# [3] = cited from earlier work
compound,measurement,setting,value
"NC(=O)c1ccc[n+]([C@@H]2O[C@H](COP(=O)([O-])OP(=O)(O)OC[C@H]3O[C@@H](n4cnc5c(N)ncnc54)[C@H](O)[C@@H]3O)[C@@H](O)[C@H]2O)c1 [NAD+, Nicotinamide adenine dinucleotide]",therapeutic effectiveness for the uses disclosed,[1],therapeutically effective
same,average increase in hair count,"[2]; 12 week trichoscan parameters, six patients, weekly micro injections of 4 ml to subcutaneous fatty layer of scalp",21%
same,preliminary results of hair growth trial,[2]; overall conclusion of the trial,statistically significant and positive
same,stability of solutions,[3]; 4° C. and neutral pH,stable for about a week
same,stability of solutions in acids or alkalis,[3]; acids or alkalis,decompose rapidly
"NC(=O)C1=CN([C@@H]2O[C@H](COP(=O)(O)OP(=O)(O)OC[C@H]3O[C@@H](n4cnc5c(N)ncnc54)[C@H](O)[C@@H]3O)[C@@H](O)[C@H]2O)C=CC1 [NADH, reference compound]",therapeutic effectiveness for the uses disclosed,[1],entirely inactive
